Test: 12-week placebo-controlled study: red blood cell fatty acid concentrations, ratios and proportions (GC/FID)
Assay type: in vivo, human
Details: for AA red blood cell concentration, change from baseline (LS mean (SE)) / AA red blood cell concentration, end-of-treatment (mean) / DHA red blood cell concentration, change from baseline (LS mean (SE)) / DHA red blood cell concentration, end-of-treatment (mean) / Linoleic red blood cell concentration, change from baseline (LS mean (SE)) / Linoleic red blood cell concentration, end-of-treatment (mean) / Oleic red blood cell concentration, change from baseline (LS mean (SE)) / Oleic red blood cell concentration, end-of-treatment (mean) / Palmitic red blood cell concentration, change from baseline (LS mean (SE)) / Palmitic red blood cell concentration, end-of-treatment (mean) / Proportion of monounsaturated fatty acids to total fatty acids in RBCs, change from baseline (LS mean (SE)) / Proportion of monounsaturated fatty acids to total fatty acids in RBCs, end-of-treatment (mean (SD)) / Proportion of saturated fatty acids to total fatty acids in RBCs, change from baseline (LS mean (SE)) / Proportion of saturated fatty acids to total fatty acids in RBCs, end-of-treatment (mean (SD)) / Proportion of total omega-3 fatty acids to total fatty acids in RBCs, change from baseline (LS mean (SE)) / Proportion of total omega-3 fatty acids to total fatty acids in RBCs, end-of-treatment (mean (SD)) / Proportion of total omega-6 fatty acids to total fatty acids in RBCs, change from baseline (LS mean (SE)) / Proportion of total omega-6 fatty acids to total fatty acids in RBCs, end-of-treatment (mean (SD)) / Ratio of AA/EPA in red blood cells, change from baseline (LS mean (SE)) / Ratio of AA/EPA in red blood cells, end-of-treatment (mean) / Ratio of n-3/n-6 FA in red blood cells, change from baseline (LS mean (SE)) / Ratio of n-3/n-6 FA in red blood cells, end-of-treatment (mean) / Stearic red blood cell concentration, change from baseline (LS mean (SE)) / Stearic red blood cell concentration, end-of-treatment (mean): week 12
Description: A multi-center, placebo-controlled randomized, double-blind, 12-week study with an open-label extension is performed to evaluate the efficacy and safety of AMR101 in patients with fasting triglyceride levels ≧500 mg/dL. The primary objective of the study is to determine the efficacy of AMR101 2 g daily and 4 g daily, compared to placebo, in lowering fasting TG levels in patients with fasting TG levels ≧500 mg/dL and ≦1500 mg/dL (≧5.65 mmol/L and ≦16.94 mmol/L).
Eligible patients will be randomly assigned at Visit 4 (Week 0) to receive orally AMR101 2 g daily, AMR101 4 g daily, or placebo for the 12-week double-blind treatment period. AMR101 is provided in 1 g liquid-filled, oblong, gelatin capsules. The matching placebo capsule is filled with light liquid paraffin and contains 0 g of AMR101. During the double-blind treatment period, patients will take 2 capsules (AMR101 or matching placebo) in the morning and 2 in the evening for a total of 4 capsules per day. Patients in the AMR101 2 g/day treatment group will receive 1 AMR101 1 g capsule and 1 matching placebo capsule in the morning and in the evening. Patients in the AMR101 4 g/day treatment group will receive 2 AMR101 1 g capsules in the morning and evening.
Lipids were extracted from plasma and RBC suspensions and converted into fatty acid methyl esters for analysis using a standard validated gas chromatography/flame ionization detection method. Fatty acid parameters were compared between EPA treatment groups and placebo using an ANCOVA model with treatment, gender, type of statin therapy, and presence of diabetes as factors, and the baseline parameter value as a covariate. LSMs, SEs, and 2-tailed 95% confidence intervals for each treatment group and for each comparison were determined.

[1] = 2 g/day vs placebo, week 12, P <0.0001
[2] = 4 g/day vs placebo, week 12, P <0.0001

CC/C=C\C/C=C\C/C=C\C/C=C\C/C=C\CCCC(=O)OCC [IPE, Icosapent ethyl]
Dose dependence of EPA concentration in RBCs (in words) (2 g/day or 4 g/day, 12 weeks): significantly increased EPA concentrations in a linear, dose-dependent fashion | AA red blood cell concentration, mean placebo-adjusted percent change from baseline (2 g/day vs placebo, week 12, P 0.0008): −8.0% | Proportion of total omega-6 fatty acids to total fatty acids in RBCs, mean placebo-adjusted percent change from baseline (2 g/day vs placebo, week 12, P 0.0014): −13.2% | Proportion of monounsaturated fatty acids to total fatty acids in RBCs, mean placebo-adjusted percent change from baseline (2 g/day vs placebo, week 12, P 0.0435): −3.1% | Proportion of total omega-3 fatty acids to total fatty acids in RBCs, mean placebo-adjusted percent change from baseline (2 g/day vs placebo, week 12, P 0.1183): 23.8% | Linoleic red blood cell concentration, mean placebo-adjusted percent change from baseline (2 g/day vs placebo, week 12, P 0.1278): −4.7% | Proportion of saturated fatty acids to total fatty acids in RBCs, mean placebo-adjusted percent change from baseline (2 g/day vs placebo, week 12, P 0.3278): 1.1% | Oleic red blood cell concentration, mean placebo-adjusted percent change from baseline (2 g/day vs placebo, week 12, P 0.3736): −2.1% | DHA red blood cell concentration, mean placebo-adjusted percent change from baseline (2 g/day vs placebo, week 12, P 0.5859): −1.8% | Stearic red blood cell concentration, mean placebo-adjusted percent change from baseline (2 g/day vs placebo, week 12, P 0.5886): 1.1% | Palmitic red blood cell concentration, mean placebo-adjusted percent change from baseline (2 g/day vs placebo, week 12, P 0.9465): −0.1% | Ratio of AA/EPA in red blood cells, mean placebo-adjusted percent change from baseline [1]: −91.1% | Ratio of n-3/n-6 FA in red blood cells, mean placebo-adjusted percent change from baseline [1]: 65.5% | AA red blood cell concentration, change from baseline (LS mean (SE)) (2 g/day): −20.9 (3.2) | AA red blood cell concentration, end-of-treatment (mean) (2 g/day): 160.3 | DHA red blood cell concentration, change from baseline (LS mean (SE)) (2 g/day): −7.3 (1.5) | DHA red blood cell concentration, end-of-treatment (mean) (2 g/day): 51.5 | Linoleic red blood cell concentration, change from baseline (LS mean (SE)) (2 g/day): −10.7 (4.7) | Linoleic red blood cell concentration, end-of-treatment (mean) (2 g/day): 169.6 | Oleic red blood cell concentration, change from baseline (LS mean (SE)) (2 g/day): −1.4 (4.1) | Oleic red blood cell concentration, end-of-treatment (mean) (2 g/day): 213.0 | Palmitic red blood cell concentration, change from baseline (LS mean (SE)) (2 g/day): −2.9 (5.4) | Palmitic red blood cell concentration, end-of-treatment (mean) (2 g/day): 341.7 | Proportion of monounsaturated fatty acids to total fatty acids in RBCs, change from baseline (LS mean (SE)) (2 g/day): −0.1 (0.3) mol % | Proportion of monounsaturated fatty acids to total fatty acids in RBCs, end-of-treatment (mean (SD)) (2 g/day): 20.0 (1.9) mol % | Proportion of saturated fatty acids to total fatty acids in RBCs, change from baseline (LS mean (SE)) (2 g/day): 0.3 (0.4) mol % | Proportion of saturated fatty acids to total fatty acids in RBCs, end-of-treatment (mean (SD)) (2 g/day): 44.4 (3.0) mol % | Proportion of total omega-3 fatty acids to total fatty acids in RBCs, change from baseline (LS mean (SE)) (2 g/day): 2.6 (0.3) mol % | Proportion of total omega-3 fatty acids to total fatty acids in RBCs, end-of-treatment (mean (SD)) (2 g/day): 8.7 (2.2) mol % | Proportion of total omega-6 fatty acids to total fatty acids in RBCs, change from baseline (LS mean (SE)) (2 g/day): −2.9 (0.4) mol % | Proportion of total omega-6 fatty acids to total fatty acids in RBCs, end-of-treatment (mean (SD)) (2 g/day): 27.0 (3.3) mol % | Ratio of AA/EPA in red blood cells, change from baseline (LS mean (SE)) (2 g/day): −17.7 (0.9) | Ratio of AA/EPA in red blood cells, end-of-treatment (mean) (2 g/day): 5.2 | Ratio of n-3/n-6 FA in red blood cells, change from baseline (LS mean (SE)) (2 g/day): 0.12 (0.010) | Ratio of n-3/n-6 FA in red blood cells, end-of-treatment (mean) (2 g/day): 0.33 | Stearic red blood cell concentration, change from baseline (LS mean (SE)) (2 g/day): −4.7 (2.9) | Stearic red blood cell concentration, end-of-treatment (mean) (2 g/day): 179.0 | Proportion of total omega-3 fatty acids to total fatty acids in RBCs, mean placebo-adjusted percent change from baseline (4 g/day vs placebo, week 12, P 0.0008): 53.4% | Proportion of monounsaturated fatty acids to total fatty acids in RBCs, mean placebo-adjusted percent change from baseline (4 g/day vs placebo, week 12, P 0.0154): −3.9% | Proportion of saturated fatty acids to total fatty acids in RBCs, mean placebo-adjusted percent change from baseline (4 g/day vs placebo, week 12, P 0.1145): 1.9% | DHA red blood cell concentration, mean placebo-adjusted percent change from baseline (4 g/day vs placebo, week 12, P 0.1216): −5.2% | Oleic red blood cell concentration, mean placebo-adjusted percent change from baseline (4 g/day vs placebo, week 12, P 0.1325): −3.7% | Palmitic red blood cell concentration, mean placebo-adjusted percent change from baseline (4 g/day vs placebo, week 12, P 0.7427): −0.7% | Stearic red blood cell concentration, mean placebo-adjusted percent change from baseline (4 g/day vs placebo, week 12, P 0.7565): −0.7% | AA red blood cell concentration, mean placebo-adjusted percent change from baseline [2]: −15.7% | Linoleic red blood cell concentration, mean placebo-adjusted percent change from baseline [2]: −13.0% | Proportion of total omega-6 fatty acids to total fatty acids in RBCs, mean placebo-adjusted percent change from baseline [2]: −17.3% | Ratio of AA/EPA in red blood cells, mean placebo-adjusted percent change from baseline [2]: −102% | Ratio of n-3/n-6 FA in red blood cells, mean placebo-adjusted percent change from baseline [2]: 106.9% | AA red blood cell concentration, change from baseline (LS mean (SE)) (4 g/day): −36.2 (3.4) | AA red blood cell concentration, end-of-treatment (mean) (4 g/day): 148.8 | DHA red blood cell concentration, change from baseline (LS mean (SE)) (4 g/day): −9.7 (1.6) | DHA red blood cell concentration, end-of-treatment (mean) (4 g/day): 51.7 | Linoleic red blood cell concentration, change from baseline (LS mean (SE)) (4 g/day): −25.0 (4.9) | Linoleic red blood cell concentration, end-of-treatment (mean) (4 g/day): 164.7 | Oleic red blood cell concentration, change from baseline (LS mean (SE)) (4 g/day): −5.6 (4.1) | Oleic red blood cell concentration, end-of-treatment (mean) (4 g/day): 208.3 | Palmitic red blood cell concentration, change from baseline (LS mean (SE)) (4 g/day): −5.8 (5.7) | Palmitic red blood cell concentration, end-of-treatment (mean) (4 g/day): 340.6 | Proportion of monounsaturated fatty acids to total fatty acids in RBCs, change from baseline (LS mean (SE)) (4 g/day): −0.2 (0.3) mol % | Proportion of monounsaturated fatty acids to total fatty acids in RBCs, end-of-treatment (mean (SD)) (4 g/day): 19.5 (1.9) mol % | Proportion of saturated fatty acids to total fatty acids in RBCs, change from baseline (LS mean (SE)) (4 g/day): 0.6 (0.4) mol % | Proportion of saturated fatty acids to total fatty acids in RBCs, end-of-treatment (mean (SD)) (4 g/day): 44.5 (2.5) mol % | Proportion of total omega-3 fatty acids to total fatty acids in RBCs, change from baseline (LS mean (SE)) (4 g/day): 4.1 (0.3) mol % | Proportion of total omega-3 fatty acids to total fatty acids in RBCs, end-of-treatment (mean (SD)) (4 g/day): 10.4 (2.3) mol % | Proportion of total omega-6 fatty acids to total fatty acids in RBCs, change from baseline (LS mean (SE)) (4 g/day): −4.7 (0.5) mol % | Proportion of total omega-6 fatty acids to total fatty acids in RBCs, end-of-treatment (mean (SD)) (4 g/day): 25.5 (2.9) mol % | Ratio of AA/EPA in red blood cells, change from baseline (LS mean (SE)) (4 g/day): −19.9 (1.0) | Ratio of AA/EPA in red blood cells, end-of-treatment (mean) (4 g/day): 3.1 | Ratio of n-3/n-6 FA in red blood cells, change from baseline (LS mean (SE)) (4 g/day): 0.20 (0.011) | Ratio of n-3/n-6 FA in red blood cells, end-of-treatment (mean) (4 g/day): 0.42 | Stearic red blood cell concentration, change from baseline (LS mean (SE)) (4 g/day): −8.2 (3.1) | Stearic red blood cell concentration, end-of-treatment (mean) (4 g/day): 178.1

Reference: US20140213648A1, “METHODS OF INCREASING EPA BLOOD LEVELS” (priority 2012, published 2014)
